Assay results from US10111880B2, “Compounds for the treatment of diabetes and disease complications arising from same” (BEN-GURION UNIVERSITY OF THE NEGEV RESEARCH AND DEVELOPMENT …, priority 2013, dated 2018).

How the values were obtained:
Type in all cases: in vivo, mouse
[1] = system: STZ-induced diabetic ICR mice; assay: Blood glucose in STZ-induced diabetic ICR mice, long-term AGS treatment (5 months) with or without insulin; set-up: Blood Glucose At 101 day / Blood Glucose At 111 day: unit: mg/dL; conditions: for circulating glucose levels in diabetic animals: summary statement
Experimental: [0182]7 week-old female ICR mice were intra-peritoneally injected with STZ (40 mg\Kg) for 5 consecutive days. Non-diabetic mice received citrate buffer (pH 4.3, cold), which served as the vehicle controls for this study. AGS-500 (6 mg\Kg) was then administered subcutaneously every 2 days, for 5 months, on the first day after STZ administration. A further control group, where DMSO was administered in accordance with this regimen, was included. Mice were divided into the following 6 groups (10 mice per group except STZ only-5 mice): • STZ only • STZ+DMSO • Citrate+DMSO 1% every day • STZ+AGS-499 (6 mg/kg) injected every day S.C • STZ+AGS-500 (6 mg/kg) injected every day S.C • STZ+AGS-500 (6 mg/kg) injected every other day S.C Mice were weighed and blood glucose levels were measured using a free style glucometer. Food consumption was also measured 24 hours prior to STZ injection. The concentration of STZ to be injected was calculated. STZ at 40 mg/kg was injected ip for 5 consecutive days. AGS treatment was administered one day following the last STZ injection. The establishment of diabetes was validated by the assessment of blood glucose levels performed every 3 days (at the beginning) and once a week after 59 days from the initiation of the experiment. Blood glucose levels over 200 mg/dl (measured 3 consecutive times) indicated a diabetic state. At 80 days from the initiation of the experiments each group was divided to 2 subgroups which received either insulin (4 units/kg) or acetic acid (0.015%) both in HEPES buffer (pH 7.45) injected every 48 hours. Mice were sacrificed after 5 months from the initiation of the experiments. Blood glucose levels were monitored every 3 days. Ten weeks after the beginning of this study, each group was divided into 2 sub-groups, one of each also received insulin (4 U\Kg) every 2 days, except for the non-diabetic sub-groups. Acetic acid (1%) served as the vehicle control.

[2] = system: STZ-induced diabetic ICR mice; assay: Glucose Tolerance Test (GTT) in STZ diabetic mice after 2 and 5 months; conditions: daily
Experimental: Glucose Tolerance Test: Animals were fasted for 12 hr with free access to water. Blood-glucose levels after fast were measured and then the animals received an i.p. injection of glucose (1.5 g/kg). Blood samples were taken at several intervals (for the duration of 2 hr), when glucose levels above 200 mg/dl at 2 hr confirmed a diagnosis of diabetes.
[…] Mice were subjected to 12 hours fast (with water) weighed, blood glucose level was measured and Glucose at 1.5 gr/kg in no more than 100 μl was injected IP. Blood glucose levels were measured at 10, 20, 30, 60, 90 and 120 min after glucose injection. glucose tolerance test.

[3] = system: insulin expressing beta islets; assay: Immunofluorescence of pancreatic slices with anti-insulin antibody, insulin expressing beta islets in mice; conditions: for pancreatic beta cell mass: summary statement
Experimental: The light grey (originally red) stains insulin producing cells, and the darker grey (originally blue) is for DAPI staining. Density of insulin staining per area was measured using “Image J” software (D-E). The results are mean±S.E.; n=4. ***p<0.005. Magnification: ×10.

[4] = system: STZ-induced diabetic ICR mice; assay: Blood glucose over time in STZ mice, short course (2 weeks) AGS treatment with or without insulin
Experimental: (§1) Eight weeks-old female ICR mice were injected intraperitoneally (IP) with Streptozotocin (STZ), at a dose of 40 mg/Kg, for 5 consecutive days. The following day and onward, mice were administered the AGS compounds (499 or 500, as indicated), at a dose of 6 mg/Kg, either subcutaneously or orally, every other day. Blood glucose levels were monitored daily.
(§2) After the establishment of diabetes (i.e. three consecutive blood glucose measurements of >200 mg/dL), mouse groups were further sub-divided into 2 sub-groups, one of each received insulin (gradual administration of 0.5-6 units/Kg, over a period of 2 weeks) subcutaneously, every other day. Blood glucose levels were monitored daily.

[5] = system: STZ-induced diabetic ICR mice; assay: Glucose tolerance test in STZ mice after short course (2 weeks) AGS treatment
Experimental: as §1, §2
Glucose tolerance tests were also performed as follows: After two weeks mice were fasted for 12 hours, then injected with D-glucose (1.5 g/Kg, IP) and blood glucose levels were examined at 0, 10, 20, 30, 60, 90 and 120 minutes, in order to evaluate pancreatic function.

[6] = system: STZ-induced diabetic mice, kidney glomeruli; assay: Kidney histopathology (PAS staining of glomeruli) in STZ diabetic mice; conditions: summary statement
Experimental: Mice were treated as described hereinabove. Following one month of treatment mice were sacrificed and histolopathological examination of the kidney was performed.
FIG. 9 plots the evaluation of a number of parameters assessed via the histopathology analysis.

CCOCc1cc(C(C)(c2cc(COCC)c(O)c(COCC)c2)c2cc(COCC)c(O)c(COCC)c2)cc(COCC)c1O [AGS-499, 1,1,1,1-tris (4-hydroxy-3,5-methylene ethoxy-phenyl)-ethane]
% reduction in blood glucose level ([1]; after 12 hours fast, day 142, 6 mg/kg s.c. daily): 20% | Blood glucose level Average ([1]; after 12 hours fast, day 142, 6 mg/kg s.c. daily, in mg/dL (unit assumed)): 317 | % reduction In blood Glucose 101 day ([1]; no insulin, daily): 29% | Blood Glucose At 101 day ([1]; no insulin, daily): 500 | Blood Glucose At 111 day ([1]; no insulin, daily): 500 | reduction In blood Glucose 111 day ([1]; no insulin, daily): 17% | Blood Glucose At 101 day ([1]; with insulin (4 units/kg every 48 hours), AGS daily): 480 | % reduction In blood Glucose 101 day ([1]; with insulin, AGS daily): 32% | Blood Glucose At 111 day ([1]; with insulin, AGS daily): 400 | reduction In blood Glucose 111 day ([1]; with insulin, AGS daily): 34% | Improvement (fold) ([2]; GTT after 2 months): 3 fold | Fold of Improvement ([2]; GTT after 5 months): 3 fold | Time needed for the Pancreas to cope glucose load after 5 months ([2]; GTT): 30 min | Time needed for the Pancreas to cope with glucose load after 2 months ([2]; GTT): 30 min | No of insulin expressing beta islets/mouse ([3]; no insulin, daily): 4.3 | increase in Insulin expressing Beta islets ([3]; no insulin, daily): 165% | No of insulin expressing beta islets/mouse ([3]; with insulin, AGS daily): 3.5 | increase in Insulin expressing Beta islets ([3]; with insulin, AGS daily): 135% | circulating glucose levels over time ([4]; 6 mg/Kg every other day, short course (2 weeks), FIG. 13-1): lowering circulating glucose levels significantly | circulating glucose levels over time, combined with insulin therapy ([4]; short course, insulin 0.5-6 units/Kg, FIG. 13-2): synergistic contribution | mean blood glucose levels in a glucose tolerance test ([5]; 6 mg/Kg subcutaneously or orally every other day, FIG. 11): reduced mean blood glucose levels | effect of adding insulin on circulating glucose levels in a glucose tolerance test ([5]; AGS subcutaneously (AGS500 also orally), FIG. 12): adding insulin did not appreciably lower the circulating levels

CCOCc1cc(C(C)(c2cc(COCC)c(O)c(COCC)c2)c2cc(COCC)c(O)c(COCC)c2)cc(COCC)c1O [formula XIII]
circulating glucose levels in diabetic animals [1]: promoted reduction of circulating glucose levels | pancreatic beta cell mass [3]: increase of pancreatic beta cell mass | kidney damage in diabetic subjects [6]: reduced kidney damage

CC(c1cc(Br)c(O)c(Br)c1)(c1cc(Br)c(O)c(Br)c1)c1cc(Br)c(O)c(Br)c1 [formula XIV]
circulating glucose levels in diabetic animals [1]: promoted reduction of circulating glucose levels | pancreatic beta cell mass [3]: increase of pancreatic beta cell mass | kidney damage in diabetic subjects [6]: reduced kidney damage

CC(c1cc(CN2CCCC2)c(O)c(CN2CCCC2)c1)(c1cc(CN2CCCC2)c(O)c(CN2CCCC2)c1)c1cc(CN2CCCC2)c(O)c(CN2CCCC2)c1 [formula XI]
circulating glucose levels in diabetic animals [1]: promoted reduction of circulating glucose levels | pancreatic beta cell mass [3]: increase of pancreatic beta cell mass | kidney damage in diabetic subjects [6]: reduced kidney damage

insulin: insulin (4 units/kg) in HEPES buffer injected every 48 hours [reference compound]
circulating glucose levels in control groups ([1]; insulin 4 U/Kg every 2 days, STZ-induced diabetic mice, FIG. 2C): lowered circulating glucose levels in control groups | Blood Glucose At 101 day ([1]; insulin only (4 units/kg every 48 hours), STZ or STZ + vehicle groups): 700 | Blood Glucose At 111 day ([1]; insulin only, STZ or STZ + vehicle groups): 600 | No of insulin expressing beta islets/mouse ([3]; insulin alone (STZ, DMSO)): 3.25 | increase in Insulin expressing Beta islets ([3]; insulin alone (STZ, DMSO)): 125%
